# Assay results: patent publication US9102588B2, “Fungicide N-cycloalkyl-N-bicyclic-carboxamide derivatives” (priority 2007, dated 2015)
# Experiment: logP
# Format: physicochemical
# Settings: intermediate amines of formula (II)
row,Compound,logP
1,c1ccc2c(c1)SCCC2NC1CC1 (racemic) [Example 177],0.67
2,CC1(C)CCC(NC2CC2)c2ccccc21 (racemic) [Example 178],1.26
3,COc1cc2c(cc1OC)C(NC1CC1)C(C)(C)CO2 (stereo not shown) [Example 167],1.22
4,CC1Cc2ccccc2C1NC1CC1 (stereo not shown) [Example 171],0.81
5,CC1(C)CC(NC2CC2)c2ccccc21 (stereo not shown) [Example 174],1.15
6,c1ccc2c(c1)OCCC2NC1CC1 (stereo not shown) [Example 175],0.32
7,Clc1ccc2c(c1)C(NC1CC1)CCO2 (stereo not shown) [Example 176],0.83
